Key:
ALK NPM1 (human) = ALK NPM1 (human) (UniProt P06748+Q9UM73); test: Caliper, Mobility shift assay off-chip
CAMK2B (human) = CAMK2B (human) (UniProt Q13554); test: Caliper, Mobility shift assay off-chip
MUSK (human) = MUSK (human) (UniProt O15146); test: Caliper, Mobility shift assay off-chip
NEK2 (human) = NEK2 (human) (UniProt P51955); test: Caliper, Mobility shift assay off-chip
NEK4 (human) = NEK4 (human) (UniProt P51957); test: Caliper, Mobility shift assay off-chip
NTRK1 (human) = NTRK1 (human) (UniProt P04629); test: Caliper, Mobility shift assay off-chip
PRKACG (human) = PRKACG (human) (UniProt P22612); test: Caliper, Mobility shift assay off-chip
SPHK1 (human) = SPHK1 (human) (UniProt Q9NYA1); test: Caliper, Mobility shift assay off-chip
TAB1 (human) = TAB1 (human) (UniProt Q15750); test: Caliper, Mobility shift assay off-chip
BMPR1A (human) = BMPR1A (human) (UniProt P36894); test: ELISA
BRAF (human) = BRAF (human) (UniProt P15056); test: ELISA
LIMK1 (human) = LIMK1 (human) (UniProt P53667); test: ELISA
MAP2K1 (human) = MAP2K1 (human) (UniProt Q02750); test: ELISA
MAP2K2 (human) = MAP2K2 (human) (UniProt P36507); test: ELISA
MAP2K4 (human) = MAP2K4 (human) (UniProt P45985); test: ELISA
MAP2K5 (human) = MAP2K5 (human) (UniProt Q13163); test: ELISA
MAP2K6 (human) = MAP2K6 (human) (UniProt P52564); test: ELISA
MAP2K7 (human) = MAP2K7 (human) (UniProt O14733); test: ELISA
MAP3K1 (human) = MAP3K1 (human) (UniProt Q13233); test: ELISA
MAP3K10 (human) = MAP3K10 (human) (UniProt Q02779); test: ELISA
MAP3K11 (human) = MAP3K11 (human) (UniProt Q16584); test: ELISA
MAP3K12 (human) = MAP3K12 (human) (UniProt Q12852); test: ELISA
MAP3K2 (human) = MAP3K2 (human) (UniProt Q9Y2U5); test: ELISA
MAP3K3 (human) = MAP3K3 (human) (UniProt Q99759); test: ELISA
MAP3K5 (human) = MAP3K5 (human) (UniProt Q99683); test: ELISA
MAP3K8 (human) = MAP3K8 (human) (UniProt P41279); test: ELISA
MOS (human) = MOS (human) (UniProt P00540); test: ELISA
PLK4 (human) = PLK4 (human) (UniProt O00444); test: ELISA
RAF1 (human) = RAF1 (human) (UniProt P04049); test: ELISA
STK11 (human) = STK11 (human) (UniProt Q15831); test: ELISA
TTK (human) = TTK (human) (UniProt P33981); test: ELISA
WEE1 (human) = WEE1 (human) (UniProt P30291); test: ELISA
AKT2 (human) = AKT2 (human) (UniProt P31751); test: Caliper, Mobility shift assay off-chip
FES (human) = FES (human) (UniProt P07332); test: Caliper, Mobility shift assay off-chip
MAP3K9 (human) = MAP3K9 (human) (UniProt P80192); test: ELISA

MAP3K3 (human), sequence (Q99759 whole entry, looked up): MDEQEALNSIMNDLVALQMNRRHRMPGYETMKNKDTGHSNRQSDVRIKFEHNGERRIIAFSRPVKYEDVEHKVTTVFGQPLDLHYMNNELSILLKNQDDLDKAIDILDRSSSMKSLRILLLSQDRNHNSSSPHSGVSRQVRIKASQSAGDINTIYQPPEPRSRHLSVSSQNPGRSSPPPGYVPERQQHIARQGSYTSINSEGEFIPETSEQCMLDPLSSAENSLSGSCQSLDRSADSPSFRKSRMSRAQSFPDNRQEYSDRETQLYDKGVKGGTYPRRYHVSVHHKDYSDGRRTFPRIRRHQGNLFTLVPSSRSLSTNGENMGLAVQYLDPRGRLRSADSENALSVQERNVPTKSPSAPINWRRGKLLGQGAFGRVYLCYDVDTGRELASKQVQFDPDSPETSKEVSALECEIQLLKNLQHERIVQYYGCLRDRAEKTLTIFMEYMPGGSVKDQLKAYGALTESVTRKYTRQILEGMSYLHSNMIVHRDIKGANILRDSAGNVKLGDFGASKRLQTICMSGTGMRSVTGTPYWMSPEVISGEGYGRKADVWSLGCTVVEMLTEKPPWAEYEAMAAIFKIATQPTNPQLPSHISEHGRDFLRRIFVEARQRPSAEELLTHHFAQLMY
MAP3K12 (human), sequence (Q12852 whole entry, looked up): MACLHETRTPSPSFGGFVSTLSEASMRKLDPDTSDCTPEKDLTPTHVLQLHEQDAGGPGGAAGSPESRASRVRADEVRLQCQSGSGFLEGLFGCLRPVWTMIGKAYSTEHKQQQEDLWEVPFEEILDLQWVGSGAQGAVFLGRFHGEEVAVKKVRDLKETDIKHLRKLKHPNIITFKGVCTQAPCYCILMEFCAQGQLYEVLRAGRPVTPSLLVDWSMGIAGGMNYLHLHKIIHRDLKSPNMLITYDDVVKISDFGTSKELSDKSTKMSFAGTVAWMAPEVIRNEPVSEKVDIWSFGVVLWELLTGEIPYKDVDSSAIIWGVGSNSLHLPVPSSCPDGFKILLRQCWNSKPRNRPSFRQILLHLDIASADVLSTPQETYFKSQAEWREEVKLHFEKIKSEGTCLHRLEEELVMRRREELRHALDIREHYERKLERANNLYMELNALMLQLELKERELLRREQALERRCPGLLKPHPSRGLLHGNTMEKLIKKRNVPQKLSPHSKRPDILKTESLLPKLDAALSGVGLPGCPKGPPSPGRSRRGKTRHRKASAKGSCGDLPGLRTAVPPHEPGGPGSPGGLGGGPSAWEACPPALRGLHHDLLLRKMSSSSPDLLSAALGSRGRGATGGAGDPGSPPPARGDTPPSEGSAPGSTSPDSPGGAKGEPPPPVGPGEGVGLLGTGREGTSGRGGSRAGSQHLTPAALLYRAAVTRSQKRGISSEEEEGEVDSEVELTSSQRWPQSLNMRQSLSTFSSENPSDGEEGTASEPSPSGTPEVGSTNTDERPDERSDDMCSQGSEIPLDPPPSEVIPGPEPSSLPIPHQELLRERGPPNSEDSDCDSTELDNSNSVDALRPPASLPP
BRAF (human), sequence (P15056 whole entry, looked up): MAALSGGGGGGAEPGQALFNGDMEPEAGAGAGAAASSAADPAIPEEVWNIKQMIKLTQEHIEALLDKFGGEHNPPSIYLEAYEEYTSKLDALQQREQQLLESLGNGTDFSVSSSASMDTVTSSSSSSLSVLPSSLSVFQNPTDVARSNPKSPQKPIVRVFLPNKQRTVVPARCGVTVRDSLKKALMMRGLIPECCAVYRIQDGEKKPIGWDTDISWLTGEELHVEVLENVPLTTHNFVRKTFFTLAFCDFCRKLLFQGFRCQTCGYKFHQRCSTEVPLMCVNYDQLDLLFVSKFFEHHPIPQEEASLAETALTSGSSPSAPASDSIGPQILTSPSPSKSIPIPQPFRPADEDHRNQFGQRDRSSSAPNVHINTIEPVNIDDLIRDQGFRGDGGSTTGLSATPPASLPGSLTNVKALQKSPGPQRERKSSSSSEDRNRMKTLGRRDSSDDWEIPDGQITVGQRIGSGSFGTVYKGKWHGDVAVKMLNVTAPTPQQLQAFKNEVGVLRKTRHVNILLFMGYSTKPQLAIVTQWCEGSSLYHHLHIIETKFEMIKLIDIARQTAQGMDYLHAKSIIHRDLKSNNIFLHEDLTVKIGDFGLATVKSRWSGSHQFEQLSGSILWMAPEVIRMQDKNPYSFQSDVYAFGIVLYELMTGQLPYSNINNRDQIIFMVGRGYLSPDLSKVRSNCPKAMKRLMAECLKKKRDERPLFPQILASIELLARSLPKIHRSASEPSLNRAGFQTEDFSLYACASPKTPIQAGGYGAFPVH
MOS (human), sequence (P00540 whole entry, looked up): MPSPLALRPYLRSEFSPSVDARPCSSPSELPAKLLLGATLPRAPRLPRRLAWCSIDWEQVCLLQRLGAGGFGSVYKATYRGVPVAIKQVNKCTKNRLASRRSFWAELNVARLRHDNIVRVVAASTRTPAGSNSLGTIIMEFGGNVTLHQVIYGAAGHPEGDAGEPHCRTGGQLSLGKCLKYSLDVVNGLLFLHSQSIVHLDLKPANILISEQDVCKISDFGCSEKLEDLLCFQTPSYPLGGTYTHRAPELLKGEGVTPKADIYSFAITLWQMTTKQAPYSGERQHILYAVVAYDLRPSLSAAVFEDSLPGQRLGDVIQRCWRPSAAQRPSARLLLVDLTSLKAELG
MAP2K7 (human), sequence (O14733 whole entry, looked up): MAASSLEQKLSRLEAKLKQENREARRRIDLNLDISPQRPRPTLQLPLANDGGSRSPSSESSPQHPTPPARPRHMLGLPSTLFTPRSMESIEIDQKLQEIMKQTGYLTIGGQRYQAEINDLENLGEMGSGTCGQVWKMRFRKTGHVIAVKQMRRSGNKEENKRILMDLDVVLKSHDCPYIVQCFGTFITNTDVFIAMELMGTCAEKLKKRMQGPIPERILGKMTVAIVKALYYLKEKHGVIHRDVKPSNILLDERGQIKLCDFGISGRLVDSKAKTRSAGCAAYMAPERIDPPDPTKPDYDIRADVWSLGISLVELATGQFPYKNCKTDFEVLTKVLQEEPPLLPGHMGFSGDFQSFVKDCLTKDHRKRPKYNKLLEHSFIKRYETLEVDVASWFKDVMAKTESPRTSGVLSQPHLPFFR
BMPR1A (human), sequence (P36894 whole entry, looked up): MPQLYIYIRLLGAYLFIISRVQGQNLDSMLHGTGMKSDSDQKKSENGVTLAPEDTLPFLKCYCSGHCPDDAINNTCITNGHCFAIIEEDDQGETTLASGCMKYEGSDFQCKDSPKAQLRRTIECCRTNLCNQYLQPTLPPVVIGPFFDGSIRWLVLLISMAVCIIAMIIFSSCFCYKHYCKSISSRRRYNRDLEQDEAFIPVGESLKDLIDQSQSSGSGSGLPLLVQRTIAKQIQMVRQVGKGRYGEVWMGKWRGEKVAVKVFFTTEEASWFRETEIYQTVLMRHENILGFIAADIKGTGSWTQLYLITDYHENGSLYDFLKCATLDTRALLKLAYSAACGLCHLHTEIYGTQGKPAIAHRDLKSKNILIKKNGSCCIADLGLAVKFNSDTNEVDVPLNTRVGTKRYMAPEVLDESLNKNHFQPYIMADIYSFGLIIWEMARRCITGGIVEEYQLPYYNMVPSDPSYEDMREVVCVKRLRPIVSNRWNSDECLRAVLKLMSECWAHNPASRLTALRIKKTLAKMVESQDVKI
MAP3K1 (human), sequence (Q13233 whole entry, looked up): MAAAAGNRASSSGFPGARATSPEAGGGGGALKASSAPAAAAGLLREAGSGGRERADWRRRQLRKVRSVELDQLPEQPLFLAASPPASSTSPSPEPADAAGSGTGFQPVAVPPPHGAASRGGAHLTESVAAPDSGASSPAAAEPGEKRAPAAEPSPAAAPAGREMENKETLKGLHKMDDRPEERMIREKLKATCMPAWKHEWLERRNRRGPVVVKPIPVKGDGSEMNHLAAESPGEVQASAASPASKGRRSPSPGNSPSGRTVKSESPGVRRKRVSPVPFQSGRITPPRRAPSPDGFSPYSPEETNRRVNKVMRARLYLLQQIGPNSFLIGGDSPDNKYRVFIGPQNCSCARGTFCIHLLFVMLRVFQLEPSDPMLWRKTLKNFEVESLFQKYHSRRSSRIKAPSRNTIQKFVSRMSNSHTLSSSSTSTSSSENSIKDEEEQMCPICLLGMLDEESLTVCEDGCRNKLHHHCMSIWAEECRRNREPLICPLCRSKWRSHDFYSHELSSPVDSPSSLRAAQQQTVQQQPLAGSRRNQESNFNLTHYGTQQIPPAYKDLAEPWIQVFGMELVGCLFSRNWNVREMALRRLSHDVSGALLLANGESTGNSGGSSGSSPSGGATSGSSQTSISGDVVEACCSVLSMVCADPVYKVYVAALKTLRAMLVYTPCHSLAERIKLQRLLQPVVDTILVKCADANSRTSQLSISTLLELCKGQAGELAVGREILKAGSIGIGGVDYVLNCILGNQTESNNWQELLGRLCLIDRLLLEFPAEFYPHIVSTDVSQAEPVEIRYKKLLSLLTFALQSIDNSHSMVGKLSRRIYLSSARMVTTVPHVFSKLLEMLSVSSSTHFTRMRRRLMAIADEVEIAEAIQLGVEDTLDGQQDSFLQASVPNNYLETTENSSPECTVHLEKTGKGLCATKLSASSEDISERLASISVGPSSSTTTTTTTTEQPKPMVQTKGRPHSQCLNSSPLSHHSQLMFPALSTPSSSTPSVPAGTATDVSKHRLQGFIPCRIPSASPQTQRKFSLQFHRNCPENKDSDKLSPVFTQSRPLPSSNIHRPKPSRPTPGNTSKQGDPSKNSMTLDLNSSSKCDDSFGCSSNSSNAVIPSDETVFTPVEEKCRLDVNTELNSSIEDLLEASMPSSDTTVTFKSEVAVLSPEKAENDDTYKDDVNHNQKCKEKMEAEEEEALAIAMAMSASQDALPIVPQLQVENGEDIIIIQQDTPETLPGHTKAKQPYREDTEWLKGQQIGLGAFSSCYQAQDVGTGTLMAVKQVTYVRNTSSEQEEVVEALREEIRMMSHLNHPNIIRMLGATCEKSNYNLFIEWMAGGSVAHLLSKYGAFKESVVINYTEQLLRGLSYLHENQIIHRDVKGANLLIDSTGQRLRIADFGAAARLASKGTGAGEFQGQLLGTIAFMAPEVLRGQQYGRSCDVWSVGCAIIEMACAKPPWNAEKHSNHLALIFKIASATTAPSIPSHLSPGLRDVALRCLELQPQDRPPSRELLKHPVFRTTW

CCN(CC)CCNC(=O)c1c(C)[nH]c(/C=C2\C(=O)Nc3ccc(F)cc32)c1C
inhibition (ALK NPM1 (human); compound 0.2 µM): 76% | inhibition (ALK NPM1 (human); compound 4.0 µM): 100% | inhibition (CAMK2B (human); compound 0.2 µM): 5.2% | inhibition (CAMK2B (human); compound 4.0 µM): 66.5% | inhibition (MUSK (human); compound 0.2 µM): 94.8% | inhibition (MUSK (human); compound 4.0 µM): 101% | inhibition (NEK2 (human); compound 0.2 µM): 8.3% | inhibition (NEK2 (human); compound 4.0 µM): 49.2% | inhibition (NEK4 (human); compound 0.2 µM): -2.5% | inhibition (NEK4 (human); compound 4.0 µM): 8.9% | inhibition (NTRK1 (human); compound 0.2 µM): 99.7% | inhibition (NTRK1 (human); compound 4.0 µM): 101% | inhibition (PRKACG (human); compound 0.2 µM): -4.4% | inhibition (PRKACG (human); compound 4.0 µM): 28.9% | inhibition (SPHK1 (human); compound 0.2 µM): -10.4% | inhibition (SPHK1 (human); compound 4.0 µM): -9.1% | inhibition (TAB1 (human); compound 0.2 µM): 83.7% | inhibition (TAB1 (human); compound 4.0 µM): 101% | inhibition (BMPR1A (human); compound 0.2 µM): -3.8% | inhibition (BMPR1A (human); compound 4.0 µM): -7.3% | inhibition (BRAF (human); compound 0.2 µM): -51% | inhibition (BRAF (human); compound 4.0 µM): -60.8% | inhibition (LIMK1 (human); compound 0.2 µM): -0.7% | inhibition (LIMK1 (human); compound 4.0 µM): 31.7% | inhibition (MAP2K1 (human); compound 0.2 µM): 73.2% | inhibition (MAP2K2 (human); compound 0.2 µM): 70.1% | inhibition (MAP2K2 (human); compound 4.0 µM): 99% | inhibition (MAP2K4 (human); compound 0.2 µM): 2.8% | inhibition (MAP2K4 (human); compound 4.0 µM): 51.9% | inhibition (MAP2K5 (human); compound 0.2 µM): 32.7% | inhibition (MAP2K5 (human); compound 4.0 µM): 91.8% | inhibition (MAP2K6 (human); compound 0.2 µM): 21.1% | inhibition (MAP2K6 (human); compound 4.0 µM): 87.3% | inhibition (MAP2K7 (human); compound 0.2 µM): 2.2% | inhibition (MAP2K7 (human); compound 4.0 µM): -3.6% | inhibition (MAP3K1 (human); compound 0.2 µM): 15.9% | inhibition (MAP3K1 (human); compound 4.0 µM): -29.8% | inhibition (MAP3K10 (human); compound 0.2 µM): 1.2% | inhibition (MAP3K10 (human); compound 4.0 µM): 11% | inhibition (MAP3K11 (human); compound 0.2 µM): 30.9% | inhibition (MAP3K11 (human); compound 4.0 µM): 89.4% | inhibition (MAP3K12 (human); compound 0.2 µM): 59.5% | inhibition (MAP3K12 (human); compound 4.0 µM): 96.5% | inhibition (MAP3K2 (human); compound 0.2 µM): 52.1% | inhibition (MAP3K2 (human); compound 4.0 µM): 95.7% | inhibition (MAP3K3 (human); compound 0.2 µM): 56.3% | inhibition (MAP3K3 (human); compound 4.0 µM): 95.5% | inhibition (MAP3K5 (human); compound 0.2 µM): -0.6% | inhibition (MAP3K5 (human); compound 4.0 µM): 60.6% | inhibition (MAP3K8 (human); compound 0.2 µM): -5.3% | inhibition (MAP3K8 (human); compound 4.0 µM): -9.2% | inhibition (MOS (human); compound 0.2 µM): 2.5% | inhibition (MOS (human); compound 4.0 µM): 29.9% | inhibition (PLK4 (human); compound 0.2 µM): 30.3% | inhibition (PLK4 (human); compound 4.0 µM): 82.7% | inhibition (RAF1 (human); compound 0.2 µM): -61.4% | inhibition (RAF1 (human); compound 4.0 µM): -88.1% | inhibition (STK11 (human); compound 0.2 µM): 4.3% | inhibition (STK11 (human); compound 4.0 µM): 28.1% | inhibition (TTK (human); compound 0.2 µM): 11.5% | inhibition (TTK (human); compound 4.0 µM): 89.7% | inhibition (WEE1 (human); compound 0.2 µM): 10% | inhibition (WEE1 (human); compound 4.0 µM): 65.3%

CNC(=O)c1ccccc1Sc1ccc2c(/C=C/c3ccccn3)n[nH]c2c1
inhibition (AKT2 (human); compound 0.001 µM): 0.8% | inhibition (AKT2 (human); compound 0.02 µM): -4.1% | inhibition (ALK NPM1 (human); compound 0.001 µM): 1.1% | inhibition (ALK NPM1 (human); compound 0.02 µM): -0.3% | inhibition (FES (human); compound 0.001 µM): 2.9% | inhibition (FES (human); compound 0.02 µM): 1.5% | inhibition (MUSK (human); compound 0.001 µM): -3.1% | inhibition (MUSK (human); compound 0.02 µM): 4.8% | inhibition (NEK2 (human); compound 0.001 µM): 5.7% | inhibition (NEK2 (human); compound 0.02 µM): 4.7% | inhibition (NEK4 (human); compound 0.001 µM): -5.5% | inhibition (NEK4 (human); compound 0.02 µM): -4.4% | inhibition (NTRK1 (human); compound 0.001 µM): 2.9% | inhibition (NTRK1 (human); compound 0.02 µM): 21.6% | inhibition (PRKACG (human); compound 0.001 µM): -7.2% | inhibition (PRKACG (human); compound 0.02 µM): -7.8% | inhibition (SPHK1 (human); compound 0.001 µM): -4.8% | inhibition (SPHK1 (human); compound 0.02 µM): -4.1% | inhibition (TAB1 (human); compound 0.001 µM): 1.4% | inhibition (TAB1 (human); compound 0.02 µM): 1.1% | inhibition (BMPR1A (human); compound 0.001 µM): -0.4% | inhibition (BMPR1A (human); compound 0.02 µM): 1.1% | inhibition (BRAF (human); compound 0.001 µM): -1.8% | inhibition (BRAF (human); compound 0.02 µM): -4.5% | inhibition (LIMK1 (human); compound 0.001 µM): 1.5% | inhibition (LIMK1 (human); compound 0.02 µM): -2.6% | inhibition (MAP2K1 (human); compound 0.001 µM): 4.3% | inhibition (MAP2K1 (human); compound 0.02 µM): -1.3% | inhibition (MAP2K2 (human); compound 0.001 µM): -7.9% | inhibition (MAP2K2 (human); compound 0.02 µM): 0.1% | inhibition (MAP2K4 (human); compound 0.001 µM): -0.4% | inhibition (MAP2K4 (human); compound 0.02 µM): -5.7% | inhibition (MAP2K5 (human); compound 0.001 µM): -15.6% | inhibition (MAP2K5 (human); compound 0.02 µM): -11.8% | inhibition (MAP2K6 (human); compound 0.001 µM): 3.2% | inhibition (MAP2K6 (human); compound 0.02 µM): 2.3% | inhibition (MAP2K7 (human); compound 0.001 µM): -1.2% | inhibition (MAP2K7 (human); compound 0.02 µM): -3.4% | inhibition (MAP3K1 (human); compound 0.001 µM): -3.7% | inhibition (MAP3K1 (human); compound 0.02 µM): -3.5% | inhibition (MAP3K10 (human); compound 0.001 µM): 4.4% | inhibition (MAP3K10 (human); compound 0.02 µM): 2.7% | inhibition (MAP3K11 (human); compound 0.001 µM): -5.9% | inhibition (MAP3K11 (human); compound 0.02 µM): -7.1% | inhibition (MAP3K12 (human); compound 0.001 µM): 6.6% | inhibition (MAP3K12 (human); compound 0.02 µM): 4.3% | inhibition (MAP3K2 (human); compound 0.001 µM): -0.4% | inhibition (MAP3K2 (human); compound 0.02 µM): 1.9% | inhibition (MAP3K3 (human); compound 0.001 µM): 6.6% | inhibition (MAP3K3 (human); compound 0.02 µM): 0.5% | inhibition (MAP3K5 (human); compound 0.001 µM): -2% | inhibition (MAP3K5 (human); compound 0.02 µM): -2.8% | inhibition (MAP3K8 (human); compound 0.001 µM): -5.7% | inhibition (MAP3K8 (human); compound 0.02 µM): -0.7% | inhibition (MAP3K9 (human); compound 0.001 µM): 1.1% | inhibition (MAP3K9 (human); compound 0.02 µM): 0.1% | inhibition (MOS (human); compound 0.001 µM): -7.5% | inhibition (MOS (human); compound 0.02 µM): -15.4% | inhibition (PLK4 (human); compound 0.001 µM): 23.3% | inhibition (PLK4 (human); compound 0.02 µM): 48.9% | inhibition (RAF1 (human); compound 0.001 µM): 0.9% | inhibition (RAF1 (human); compound 0.02 µM): -3% | inhibition (STK11 (human); compound 0.001 µM): 1.9% | inhibition (STK11 (human); compound 0.02 µM): 0.2% | inhibition (TTK (human); compound 0.001 µM): -2.7% | inhibition (TTK (human); compound 0.02 µM): -3.2% | inhibition (WEE1 (human); compound 0.001 µM): -2.1% | inhibition (WEE1 (human); compound 0.02 µM): 1.5%

Reference: the kinase profiling compilation of Christmann-Franck et al. (2016)
